Assay results as given in the NIST ThermoML archive (doi:10.1021/je800925v).
± gives the expanded uncertainty stated by the source.

Assay: xn = mol fraction of the nth substance listed
Details: Liquid

CCCCCCCC [octane] + CCO
Details	mass density [kg/m3]	viscosity [mPa·s]
273.15 K, x2 = 0.095	713.3 ± 9.3	0.6185 ± 0.024
273.15 K, x2 = 0.192	715.9 ± 9.3	0.6401 ± 0.024
273.15 K, x2 = 0.294	719.6 ± 9.2	0.698 ± 0.025
273.15 K, x2 = 0.399	725.5 ± 9	0.7603 ± 0.026
273.15 K, x2 = 0.496	732.2 ± 8.9	0.8635 ± 0.027
273.15 K, x2 = 0.602	740.1 ± 8.7	0.9516 ± 0.029
273.15 K, x2 = 0.691	752 ± 8.4	1.103 ± 0.031
273.15 K, x2 = 0.807	763.9 ± 8.1	1.262 ± 0.033
273.15 K, x2 = 0.911	781 ± 7.7	1.459 ± 0.036
275.65 K, x2 = 0.095	709.2 ± 9.4	0.6003 ± 0.023
275.65 K, x2 = 0.192	713.9 ± 9.3	0.6206 ± 0.024
275.65 K, x2 = 0.294	719.5 ± 9.2	0.6743 ± 0.025
275.65 K, x2 = 0.399	723.4 ± 9.1	0.7329 ± 0.025
275.65 K, x2 = 0.496	731.5 ± 8.9	0.828 ± 0.027
275.65 K, x2 = 0.602	738 ± 8.7	0.9122 ± 0.028
275.65 K, x2 = 0.691	749.9 ± 8.4	1.054 ± 0.03
275.65 K, x2 = 0.807	761.7 ± 8.2	1.203 ± 0.032
275.65 K, x2 = 0.911	778.9 ± 7.8	1.389 ± 0.035
278.15 K, x2 = 0.095	707.2 ± 9.5	0.583 ± 0.023
278.15 K, x2 = 0.192	711.8 ± 9.4	0.6019 ± 0.023
278.15 K, x2 = 0.294	717.2 ± 9.2	0.652 ± 0.024
278.15 K, x2 = 0.399	721.3 ± 9.1	0.7069 ± 0.025
278.15 K, x2 = 0.496	729.4 ± 8.9	0.7951 ± 0.026
278.15 K, x2 = 0.602	735.9 ± 8.8	0.8751 ± 0.027
278.15 K, x2 = 0.691	747.8 ± 8.5	1.008 ± 0.029
278.15 K, x2 = 0.807	759.7 ± 8.2	1.148 ± 0.031
278.15 K, x2 = 0.911	776.8 ± 7.8	1.323 ± 0.034
280.65 K, x2 = 0.095	705.1 ± 9.5	0.5664 ± 0.023
280.65 K, x2 = 0.192	708.5 ± 9.4	0.5841 ± 0.023
280.65 K, x2 = 0.294	714.8 ± 9.3	0.6308 ± 0.024
280.65 K, x2 = 0.399	719.2 ± 9.2	0.6822 ± 0.025
280.65 K, x2 = 0.496	725.2 ± 9	0.7643 ± 0.026
280.65 K, x2 = 0.602	733.8 ± 8.8	0.8399 ± 0.027
280.65 K, x2 = 0.691	745.7 ± 8.5	0.9555 ± 0.029
280.65 K, x2 = 0.807	757.6 ± 8.3	1.097 ± 0.031
280.65 K, x2 = 0.911	774.7 ± 7.9	1.26 ± 0.033
283.15 K, x2 = 0.095	703 ± 9.6	0.5505 ± 0.023
283.15 K, x2 = 0.192	706.4 ± 9.5	0.5669 ± 0.023
283.15 K, x2 = 0.294	712.5 ± 9.3	0.6105 ± 0.024
283.15 K, x2 = 0.399	717.1 ± 9.2	0.6587 ± 0.024
283.15 K, x2 = 0.496	723.1 ± 9.1	0.7348 ± 0.025
283.15 K, x2 = 0.602	731.7 ± 8.9	0.8067 ± 0.026
283.15 K, x2 = 0.691	743.6 ± 8.6	0.9146 ± 0.028
283.15 K, x2 = 0.807	755.4 ± 8.3	1.047 ± 0.03
283.15 K, x2 = 0.911	772.6 ± 7.9	1.202 ± 0.032
285.65 K, x2 = 0.095	701 ± 9.6	0.5351 ± 0.023
285.65 K, x2 = 0.192	704.3 ± 9.5	0.5505 ± 0.023
285.65 K, x2 = 0.294	710.2 ± 9.4	0.5906 ± 0.023
285.65 K, x2 = 0.399	715 ± 9.3	0.6363 ± 0.024
285.65 K, x2 = 0.496	723.1 ± 9.1	0.707 ± 0.025
285.65 K, x2 = 0.602	729.6 ± 8.9	0.7758 ± 0.026
285.65 K, x2 = 0.691	741.5 ± 8.6	0.8763 ± 0.027
285.65 K, x2 = 0.807	753.3 ± 8.4	1.002 ± 0.029
285.65 K, x2 = 0.911	770.5 ± 8	1.147 ± 0.031
288.15 K, x2 = 0.095	698.9 ± 9.7	0.5207 ± 0.022
288.15 K, x2 = 0.192	702.2 ± 9.6	0.5347 ± 0.023
288.15 K, x2 = 0.294	708.1 ± 9.4	0.5721 ± 0.023
288.15 K, x2 = 0.399	712.9 ± 9.3	0.615 ± 0.024
288.15 K, x2 = 0.496	721 ± 9.1	0.6805 ± 0.025
288.15 K, x2 = 0.602	727.5 ± 9	0.7453 ± 0.025
288.15 K, x2 = 0.691	739.4 ± 8.7	0.8411 ± 0.027
288.15 K, x2 = 0.807	751.2 ± 8.4	0.958 ± 0.029
288.15 K, x2 = 0.911	768.4 ± 8	1.095 ± 0.031
290.65 K, x2 = 0.095	696.8 ± 9.7	0.5072 ± 0.022
290.65 K, x2 = 0.192	700.1 ± 9.6	0.5195 ± 0.022
290.65 K, x2 = 0.294	705.9 ± 9.5	0.5541 ± 0.023
290.65 K, x2 = 0.399	710.8 ± 9.4	0.5946 ± 0.023
290.65 K, x2 = 0.496	718.9 ± 9.2	0.6543 ± 0.024
290.65 K, x2 = 0.602	725.3 ± 9	0.7168 ± 0.025
290.65 K, x2 = 0.691	737.2 ± 8.8	0.8071 ± 0.026
290.65 K, x2 = 0.807	749.1 ± 8.5	0.9164 ± 0.028
290.65 K, x2 = 0.911	766.3 ± 8.1	1.046 ± 0.03
293.15 K, x2 = 0	705.6 ± 9.5	0.5374 ± 0.023
293.15 K, x2 = 0.095	694.7 ± 9.8	0.4931 ± 0.022
293.15 K, x2 = 0.192	698 ± 9.7	0.5049 ± 0.022
293.15 K, x2 = 0.294	703.8 ± 9.6	0.5366 ± 0.023
293.15 K, x2 = 0.399	708.6 ± 9.4	0.5752 ± 0.023
293.15 K, x2 = 0.496	716.8 ± 9.2	0.6298 ± 0.024
293.15 K, x2 = 0.602	723.2 ± 9.1	0.6899 ± 0.025
293.15 K, x2 = 0.691	735.1 ± 8.8	0.7742 ± 0.026
293.15 K, x2 = 0.807	746.9 ± 8.5	0.8781 ± 0.027
293.15 K, x2 = 0.911	764.1 ± 8.1	0.9997 ± 0.029
295.65 K, x2 = 0.095	692.6 ± 9.8	0.4796 ± 0.022
295.65 K, x2 = 0.192	695.9 ± 9.7	0.4908 ± 0.022
295.65 K, x2 = 0.294	701.7 ± 9.6	0.5197 ± 0.022
295.65 K, x2 = 0.399	706.5 ± 9.5	0.5566 ± 0.023
295.65 K, x2 = 0.496	714.7 ± 9.3	0.6039 ± 0.024
295.65 K, x2 = 0.602	721.1 ± 9.1	0.6643 ± 0.024
295.65 K, x2 = 0.691	732.9 ± 8.9	0.7428 ± 0.025
295.65 K, x2 = 0.807	744.7 ± 8.6	0.8415 ± 0.027
295.65 K, x2 = 0.911	762 ± 8.2	0.956 ± 0.029
298.15 K, x2 = 0	701.6 ± 9.6	0.5087 ± 0.022
298.15 K, x2 = 0.095	690.5 ± 9.9	0.4675 ± 0.022
298.15 K, x2 = 0.192	693.8 ± 9.8	0.477 ± 0.022
298.15 K, x2 = 0.294	699.6 ± 9.7	0.5022 ± 0.022
298.15 K, x2 = 0.399	704.3 ± 9.5	0.5386 ± 0.023
298.15 K, x2 = 0.496	712.6 ± 9.3	0.5828 ± 0.023
298.15 K, x2 = 0.602	718.9 ± 9.2	0.6396 ± 0.024
298.15 K, x2 = 0.691	730.8 ± 8.9	0.7137 ± 0.025
298.15 K, x2 = 0.807	742.6 ± 8.6	0.8061 ± 0.026
298.15 K, x2 = 0.911	759.8 ± 8.2	0.925 ± 0.028
